Data published in patent US11279683B2, “Thiophene derivatives as antiviral agents” (ENYO PHARMA, priority 2016, dated 2022).
Read-outs that look alike come from different tables or passages of the source.

Tested on: H1N1 (influenza A/New Caledonia/20/99)
Assay: microbe, parasite or virus in culture
Assay type: cell-based
[1] = Influenza A virus, H1N1, A549, 48 h

Row | Compound | IC50 [1] | IC50
1 | Cc1ccc(NC(=O)c2c(NC(=O)C3CCCCC3C(=O)O)sc3c2CCC3)cc1 (stereo not shown) [Compound 66, 2-[[3-(p-Tolylcarbamoyl)-5,6-dihydro-4H-cyclopenta[b]thiophen-2-yl]carbamoyl]cyclohexanecarboxylic acid] | 11.7 µM | 
2 | O=C(Nc1ccc(Cl)c(C(F)(F)F)c1)c1c(NC(=O)C2CCCCC2C(=O)O)sc2c1CCC2 (stereo not shown) [Compound 6, 2-[[3-[[4-Chloro-3-(trifluoromethyl)phenyl]carbamoyl]-5,6-dihydro-4H-cyclopenta[b]thiophen-2-yl]carbamoyl]cyclohexanecarboxylic acid] | 4.68 µM | 
3 | Cc1cccc(NC(=O)c2c(NC(=O)C3CCCCC3C(=O)O)sc3c2CCC3)c1 (stereo not shown) [Compound 58, 2-[[3-(m-Tolylcarbamoyl)-5,6-dihydro-4H-cyclopenta[b]thiophen-2-yl]carbamoyl]cyclohexanecarboxylic acid] | 27.6 µM | 
4 | CC(C)c1ccc(NC(=O)c2c(NC(=O)C3CCCCC3C(=O)O)sc3c2CCC3)cc1 (stereo not shown) [Compound 25, 2-[[3-[(4-Isopropylphenyl)carbamoyl]-5,6-dihydro-4H-cyclopenta[b]thiophen-2-yl]carbamoyl]cyclohexanecarboxylic acid] | 4.68 µM | 
5 | NS(=O)(=O)N1CCC1C(=O)Nc1sc2c(c1C(=O)Nc1ccc(Cl)cc1)CCC2 (stereo not shown) [Compound 102, N-[3-[(4-chlorophenyl)carbamoyl]-5,6-dihydro-4H-cyclopenta[b]thiophen-2-yl]-1-sulfamoyl-azetidine-2-carboxamide] | 20.9 µM | 
6 | O=C(NC1CCCCC1)c1c(NC(=O)C2CCCCC2C(=O)O)sc2c1CCC2 (stereo not shown) [Compound 65, 2-[[3-(Cyclohexylcarbamoyl)-5,6-dihydro-4H-cyclopenta[b]thiophen-2-yl]carbamoyl]cyclohexanecarboxylic acid] | 17.7 µM | 
7 | O=C(Nc1ccc(Cl)cc1)c1c(NC(=O)C2CCCC2C(=O)O)sc2c1CCC2 (stereo not shown) [Compound 46, 2-[[3-[(4-Chlorophenyl)carbamoyl]-5,6-dihydro-4H-cyclopenta[b]thiophen-2-yl]carbamoyl]cyclopentanecarboxylic acid] | 17.4 µM | 
8 | CC1OCc2sc(NC(=O)C3CCCCC3C(=O)O)c(C(=O)Nc3ccc(Cl)cc3)c21 (stereo not shown) [Compound 39, 2-[[3-[(4-Chlorophenyl)carbamoyl]-4-methyl-4,6-dihydrothieno[2,3-c]furan-2-yl]carbamoyl]cyclohexanecarboxylic acid] | 53.5 µM | 
9 | O=C(Nc1ccc(Cl)cc1)c1c(NC(=O)C2CCC(C(=O)O)CC2)sc2c1CCC2 (single isomer, unassigned) [Compound 97, 4-[[3-[(4-chlorophenyl)carbamoyl]-5,6-dihydro-4H-cyclopenta[b]thiophen-2-yl]carbamoyl]cyclohexanecarboxylic acid] | 14.7 µM | 
10 | O=C(Nc1ccc(Cl)cc1)c1c(NC(=O)C2CCCCC2CO)sc2c1CCC2 (stereo not shown) [Compound 56, N-(4-Chlorophenyl)-2-[[2-(hydroxymethyl)cyclohexanecarbonyl]amino]-5,6-dihydro-4H-cyclopenta[b]thiophene-3-carboxamide] | 24 µM | 
11 | O=C(Nc1ccc(N2CCOCC2)cc1)c1c(NC(=O)C2CCCCC2C(=O)O)sc2c1CCC2 (stereo not shown) [Compound 15, 2-[[3-[(4-Morpholinophenyl)carbamoyl]-5,6-dihydro-4H-cyclopenta[b]thiophen-2-yl]carbamoyl]cyclohexanecarboxylic acid] | 11.2 µM | 
12 | NS(=O)(=O)N1CCCC(C(=O)Nc2sc3c(c2C(=O)Nc2ccc(Cl)cc2)CCC3)C1 (stereo not shown) [Compound 83, N-[3-[(4-chlorophenyl)carbamoyl]-5,6-dihydro-4H-cyclopenta[b]thiophen-2-yl]-1-sulfamoyl-piperidine-3-carboxamide] | 5.05 µM | 
13 | O=C(Nc1ccc(Cl)cc1)c1c(NC(=O)C2CCN2)sc2c1CCC2 (stereo not shown) [Compound 96, N-[3-[(4-chlorophenyl)carbamoyl]-5,6-dihydro-4H-cyclopenta[b]thiophen-2-yl]azetidine-2-carboxamide] | 14.1 µM | 
14 | 2-[[6-tert-butoxycarbonyl-3-[(4-chlorophenyl)carbamoyl]-5,7-dihydro-4H-thieno[2,3-c]pyridin-2-yl]carbamoyl]cyclohexanecarboxylic acid [Compound 91] |  | 10 µM
15 | CCc1c(C)sc(NC(=O)C2CCCCC2C(=O)O)c1C(=O)Nc1ccccc1 (stereo not shown) [Compound 73, 2-[[4-Ethyl-5-methyl-3-(phenylcarbamoyl)-2-thienyl]carbamoyl]cyclohexanecarboxylic acid] | 24.6 µM | 
16 | O=C(Nc1ccc(Cl)cc1)c1c(NC(=O)C2CCCCC2C(=O)O)sc2c1CCC2 (stereo not drawn) [Compound 49, 2-[[3-[(4-Chlorophenyl)carbamoyl]-5,6-dihydro-4H-cyclopenta[b]thiophen-2-yl]carbamoyl]cyclohexane-trans-carboxylic acid] | 12.2 µM | 
17 | O=C(Nc1cccc(Cl)c1)c1c(NC(=O)C2CCCCC2C(=O)O)sc2c1CCC2 (stereo not shown) [Compound 17, 2-[[3-[(3-Chlorophenyl)carbamoyl]-5,6-dihydro-4H-cyclopenta[b]thiophen-2-yl]carbamoyl]cyclohexanecarboxylic acid] | 4.88 µM | 

Row | Compound | IC50 [1] | IC50
18 | O=C(NC1CCc2ccccc21)c1c(NC(=O)C2CCCCC2C(=O)O)sc2c1CCC2 (stereo not shown) [Compound 23, 2-[[3-(Indan-1-ylcarbamoyl)-5,6-dihydro-4H-cyclopenta[b]thiophen-2-yl]carbamoyl]cyclohexanecarboxylic acid] | 6.28 µM | 
19 | O=C(Nc1ccc(F)cc1)c1c(NC(=O)C2CCCCC2C(=O)O)sc2c1CCC2 (stereo not shown) [Compound 4, 2-[[3-[(4-Fluorophenyl)carbamoyl]-5,6-dihydro-4H-cyclopenta[b]thiophen-2-yl]carbamoyl]cyclohexanecarboxylic acid] | 15 µM | 
20 | Cc1ccc(NC(=O)c2c(NC(=O)C3CCCCC3C(=O)O)sc3c2CCC3)cc1Cl (stereo not shown) [Compound 14, 2-[[3-[(3-chloro-4-methyl-phenyl)carbamoyl]-5,6-dihydro-4H-cyclopenta[b]thiophen-2-yl]carbamoyl]cyclohexanecarboxylic acid] | 4.78 µM | 
21 | CC(=O)c1cccc(NC(=O)c2c(NC(=O)C3CCCCC3C(=O)O)sc3c2CCC3)c1 (stereo not shown) [Compound 12, 2-[[3-[(3-Acetylphenyl)carbamoyl]-5,6-dihydro-4H-cyclopenta[b]thiophen-2-yl]carbamoyl]cyclohexanecarboxylic acid] | 21.2 µM | 
22 | O=C(Nc1ccc(Cl)cc1)c1c(NC(=O)C2COC2)sc2c1CCC2 [Compound 94, N-[3-[(4-chlorophenyl)carbamoyl]-5,6-dihydro-4H-cyclopenta[b]thiophen-2-yl]oxetane-3-carboxamide] | 12.9 µM | 
23 | O=C(Nc1ccc(C(F)(F)F)cc1)c1c(NC(=O)C2CCCCC2C(=O)O)sc2c1CCC2 (stereo not shown) [Compound 27, 2-[[3-[[4-(Trifluoromethyl)phenyl]carbamoyl]-5,6-dihydro-4H-cyclopenta[b]thiophen-2-yl]carbamoyl]cyclohexanecarboxylic acid] | 18.1 µM | 
24 | O=C(CC1CCOCC1)Nc1sc2c(c1C(=O)Nc1ccc(Cl)cc1)CCC2 [Compound 81, N-(4-chlorophenyl)-2-[(2-tetrahydropyran-4-ylacetyl)amino]-5,6-dihydro-4H-cyclopenta[b]thiophene-3-carboxamide] | 3.9 µM | 
25 | CC(C)(C)C1CCc2c(sc(NC(=O)[C@H]3CCCC[C@H]3C(=O)O)c2C(=O)Nc2ccc(Cl)cc2)C1 (stereo in doubt) [Compound 79, 2-[[6-tert-butyl-3-[(4-chlorophenyl)carbamoyl]-4,5,6,7-tetrahydrobenzothiophen-2-yl]carbamoyl]cyclohexanecarboxylic acid] | 1.85 µM | 
26 | NS(=O)(=O)N1CCCCC1C(=O)Nc1sc2c(c1C(=O)Nc1ccc(Cl)cc1)CCC2 (stereo not shown) [Compound 80, N-[3-[(4-chlorophenyl)carbamoyl]-5,6-dihydro-4H-cyclopenta[b]thiophen-2-yl]-1-sulfamoyl-piperidine-2-carboxamide] | 2.25 µM | 
27 | CS(=O)(=O)N1CCCC(C(=O)Nc2sc3c(c2C(=O)Nc2ccc(Cl)cc2)CCC3)C1 (stereo not shown) [Compound 95, N-[3-[(4-chlorophenyl)carbamoyl]-5,6-dihydro-4H-cyclopenta[b]thiophen-2-yl]-1-methylsulfonyl-piperidine-3-carboxamide] | 13.7 µM | 
28 | O=C(Nc1ccc(Cl)cc1)c1ccsc1NC(=O)C1C2CCC(CC2)C1C(=O)O (stereo not shown) [Compound 71, 2-[[3-[(4-Chlorophenyl)carbamoyl]-2-thienyl]carbamoyl]bicyclo[2.2.2]octane-3-carboxylic acid] | 12.2 µM | 
29 | O=C(O)C1CCCCC1C(=O)Nc1sc2c(c1C(=O)N1CCN(c3ccc(Cl)cc3)CC1)CCC2 (stereo not shown) [Compound 36, 2-[[3-[4-(4-chlorophenyl)piperazine-1-carbonyl]-5,6-dihydro-4H-cyclopenta[b]thiophen-2-yl]carbamoyl]cyclohexanecarboxylic acid] | 21 µM | 
30 | O=C(Nc1ccc(Cl)cc1)c1c(N2C(=O)C3CCCCC3C2=O)sc2c1CCC2 (stereo not shown) [Compound 54, N-(4-Chlorophenyl)-2-(1,3-dioxo-3a,4,5,6,7,7a-hexahydroisoindol-2-yl)-5,6-dihydro-4H-cyclopenta[b]thiophene-3-carboxamide] | 5.98 µM | 
31 | NC(=O)N1CCOCC1C(=O)Nc1sc2c(c1C(=O)Nc1ccc(Cl)cc1)CCC2 (stereo not shown) [Compound 82, N3-[3-[(4-chlorophenyl)carbamoyl]-5,6-dihydro-4H-cyclopenta[b]thiophen-2-yl]morpholine-3,4-dicarboxamide] | 4.4 µM | 
32 | O=C(Nc1ccc(Cl)cc1)c1c(NC(=O)N2CCCCC2C(=O)O)sc2c1CCC2 (stereo not shown) [Compound 89, 1-[[3-[(4-chlorophenyl)carbamoyl]-5,6-dihydro-4H-cyclopenta[b]thiophen-2-yl]carbamoyl]piperidine-2-carboxylic acid] | 8.8 µM | 
33 | Cc1ccc(NC(=O)c2c(NC(=O)C3CC=CCC3C(=O)O)sc3c2CCCC3)cc1 (stereo not shown) [Compound 60, 6-[[3-(p-Tolylcarbamoyl)-4,5,6,7-tetrahydrobenzothiophen-2-yl]carbamoyl]cyclohex-3-ene-1-carboxylic acid] | 54.8 µM | 
34 | O=C(Nc1ccc(Cl)cc1)c1c(NC(=O)C2CCCCC2)sc2c1CCC2 [Compound 52, N-(4-Chlorophenyl)-2-(cyclohexanecarbonylamino)-5,6-dihydro-4H-cyclopenta[b]thiophene-3-carboxamide] | 29.3 µM | 
